Reference: PMC8855934 (Journal of medicinal chemistry, 2021)
Substitutions are numbered along the chain they refer to.

Key:
AR protein [1] = molecular target: T1, AR protein (Homo sapiens, UniProt P10275); assay: AR degradation in VCaP cell line; type: cell-based; details: for reduction of AR protein level (degradation kinetics) / Dmax: VCaP; for reduction of AR protein level (degradation kinetics): 1 h; for Dmax: read-out: Dmax, AR degradation in VCaP cell line, VCaP cell line, 24 h treatment, Western blotting
T1 sequence (P10275 1-920): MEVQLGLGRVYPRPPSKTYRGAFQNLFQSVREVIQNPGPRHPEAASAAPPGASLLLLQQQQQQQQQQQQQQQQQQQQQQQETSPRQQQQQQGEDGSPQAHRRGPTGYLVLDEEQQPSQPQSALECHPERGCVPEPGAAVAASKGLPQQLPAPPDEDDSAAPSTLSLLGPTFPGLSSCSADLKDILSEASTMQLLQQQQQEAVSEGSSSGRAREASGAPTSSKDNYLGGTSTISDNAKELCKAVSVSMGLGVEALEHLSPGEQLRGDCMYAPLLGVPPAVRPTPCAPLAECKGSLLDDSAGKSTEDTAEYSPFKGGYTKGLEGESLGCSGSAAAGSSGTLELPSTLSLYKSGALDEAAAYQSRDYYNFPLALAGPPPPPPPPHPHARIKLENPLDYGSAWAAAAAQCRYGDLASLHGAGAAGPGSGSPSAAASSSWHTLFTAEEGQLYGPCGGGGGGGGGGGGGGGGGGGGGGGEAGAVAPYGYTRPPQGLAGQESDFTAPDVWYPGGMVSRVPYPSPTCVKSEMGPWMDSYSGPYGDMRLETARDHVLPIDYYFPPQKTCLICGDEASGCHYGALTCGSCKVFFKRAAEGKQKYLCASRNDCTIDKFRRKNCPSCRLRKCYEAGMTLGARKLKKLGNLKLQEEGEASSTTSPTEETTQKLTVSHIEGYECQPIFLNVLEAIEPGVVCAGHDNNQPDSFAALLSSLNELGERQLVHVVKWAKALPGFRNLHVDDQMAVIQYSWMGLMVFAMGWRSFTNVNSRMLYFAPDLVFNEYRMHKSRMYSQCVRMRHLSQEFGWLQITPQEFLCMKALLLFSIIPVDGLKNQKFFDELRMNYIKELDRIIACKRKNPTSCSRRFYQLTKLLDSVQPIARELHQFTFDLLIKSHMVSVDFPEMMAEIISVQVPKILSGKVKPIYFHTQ

AR T878A mutant protein = molecular target: T2, AR T878A mutant protein (Homo sapiens, UniProt P10275, T878A); details: LNCaP, 1 h
T2 sequence (P10275 1-920 T878A): T1 sequence (P10275 1-920) with T878A

Oral exposures in mice = type: in vivo; details: oral gavage, non-tumor-bearing male mice (Table S1)
Pharmacokinetics in mice = type: in vivo; details: male, mouse, iv, 1 mg/kg
AR protein [2] = molecular target: T1, AR protein; details: single oral administration 20 mg/kg, 6 and 24 h time-points, Western blotting

With `CN(c1ccc(C#N)c(Cl)c1)[C@H]1CC[C@H](NC(=O)c2ccc(N3CCC(CN4CCN(c5ccc6c(c5)C(=O)N(C5CCC(=O)NC5=O)C6=O)CC4)CC3)cc2)CC1` (stereo partly drawn) [Compound 40, N-(1R,4R)-4-(((3-Chloro-4-cyanophenyl)(methyl)amino)-cyclohexyl)-4-(4-((4-(2-(2,6-dioxopiperidin-3-yl)-1,3-dioxoisoindolin-5-yl)piperazin-1-yl)methyl)piperidin-1-yl)benzamide] the “reduction of AR protein level (degradation kinetics)” value (from here on “reduction … (degradation kinetics)”) (AR protein [1]) was “effectively reduce” and the “reduction … (degradation kinetics)” value (AR T878A mutant protein) was “effectively reduce”.

With `N#Cc1ncc(N2C(=O)C3(CCC3)N(c3ccc(C(=O)N4CCN(C5CCN(c6ccc7c(c6)C(=O)N(C6CCC(=O)NC6=O)C7=O)CC5)CC4)c(F)c3)C2=S)cc1C(F)(F)F` (stereo not drawn) [Compound 48, 5-(5-(4-(4-(1-(2-(2,6-Dioxopiperidin-3-yl)-1,3-dioxoisoindolin-5-yl)piperidin-4-yl)piperazine-1-carbonyl)-3-fluorophenyl)-8-oxo-6-thioxo-5,7-diazaspiro[3.4]octan-7-yl)-3-(trifluoromethyl)-picolinonitrile] the Dmax (AR protein [1]) was < 32%.

With `N#Cc1ccc(O[C@H]2CC[C@H](NC(=O)c3ccc(NCCCNc4ccc5c(c4)C(=O)N(C4CCC(=O)NC4=O)C5=O)cc3)CC2)cc1Cl` (stereo partly drawn) [Compound 11, N-((1R,4R)-4-(3-Chloro-4-cyanophenoxy)cyclohexyl)-4-((3-((2-(2,6-dioxopiperidin-3-yl)-1,3-dioxoisoindolin-5-yl)amino)propyl)-amino)benzamide] the “oral exposures in mice” value (Oral exposures in mice) was “very low”.

In the case of `CN(c1ccc(C#N)c(Cl)c1)[C@H]1CC[C@H](NC(=O)c2ccc(N3CC(N4CCN(c5ccc6c(c5)C(=O)N(C5CCC(=O)NC5=O)C6=O)CC4)C3)cc2)CC1` (stereo partly drawn) [Compound 45, N-(1R,4R)-4-(((3-Chloro-4-cyanophenyl)(methyl)amino)-cyclohexyl)-4-(3-(4-(2-(2,6-dioxopiperidin-3-yl)-1,3-dioxoisoindolin-5-yl)piperazin-1-yl)azetidin-1-yl)benzamide], the “reduction … (degradation kinetics)” value (AR protein [1]) is reported as “effectively reduce”, the Vd (Pharmacokinetics in mice; in vivo) is reported as 1.8 to 2.1 L/kg and the clearance (Pharmacokinetics in mice; in vivo) is reported as 3.33 to 5 mL/min/kg. The half-life (Pharmacokinetics in mice; in vivo) was 5.5 to 7.5 h, the clearance (Pharmacokinetics in mice; plasma) was 3.33 mL/min/kg and the “reduction of AR protein level in VCaP tumor tissue” value (AR protein [2]) was “effective”. For the same compound, the “reduction … (degradation kinetics)” value (AR T878A mutant protein) was “effectively reduce”.

`CN(c1ccc(C#N)c(Cl)c1)[C@H]1CC[C@H](NC(=O)c2ccc(N3CCC(N4CCN(c5ccc6c(c5)C(=O)N(C5CCC(=O)NC5=O)C6=O)CC4)CC3)cc2)CC1` (stereo partly drawn) [Compound 35] gave a clearance (Pharmacokinetics in mice; plasma) of 5 mL/min/kg.

In the case of `CC(O)(CS(=O)(=O)c1ccc(N2CCN(C3CCN(c4ccc5c(c4)C(=O)N(C4CCC(=O)NC4=O)C5=O)CC3)CC2)cc1)C(=O)Nc1ccc(C#N)c(C(F)(F)F)c1` (stereo not drawn) [Compound 46, N-(4-Cyano-3-(trifluoromethyl)phenyl)-3-((4-(4-(1-(2-(2,6-dioxopiperidin-3-yl)-1,3-dioxoisoindolin-5-yl)piperidin-4-yl)piperazin-1-yl)phenyl)sulfonyl)-2-hydroxy-2-methylpropanamide], the Dmax (AR protein [1]) is reported as < 32%.

For `N#Cc1ccc(O[C@H]2CC[C@H](NC(=O)c3ccc(N4CCN(CC5CN(c6ccc7c(c6)C(=O)N(C6CCC(=O)NC6=O)C7=O)C5)CC4)cc3)CC2)cc1Cl` (stereo partly drawn) [Compound 27, N-(1R,4R)-4-((3-Chloro-4-cyanophenoxy)cyclohexyl)-4-(4-((l-(2-(2,6-dioxopiperidin-3-yl)-1,3-dioxoisoindolin-5-yl)azetidin-3-yl)-methyl)piperazin-1-yl)benzamide], the “reduction … (degradation kinetics)” value (AR protein [1]) was “effectively reduce” and the “reduction … (degradation kinetics)” value (AR T878A mutant protein) was “effectively reduce”.

For `N#Cc1ccc(OC2CCN(C(=O)c3ccc(N4CCC(N5CCN(c6ccc7c(c6)C(=O)N(C6CCC(=O)NC6=O)C7=O)CC5)CC4)cc3)CC2)cc1Cl` (stereo not drawn) [Compound 32, 2-Chloro-4-((1-(4-(4-(4-(2-(2,6-dioxopiperidin-3-yl)-1,3-dioxoisoindolin-5-yl)piperazin-1-yl)piperidin-1-yl)benzoyl)piperidin-4-yl)-oxy)benzonitrile], the “effect in reducing AR protein (in words)” value (AR protein [1]; VCaP cell line) was “little or no effect”.

In the case of `CN(c1ccc(C#N)c(Cl)c1)[C@H]1CC[C@H](NC(=O)c2ccc(N3CCN(C4CCN(c5ccc6c(c5)C(=O)N(C5CCC(=O)NC5=O)C6=O)CC4)CC3)cc2)CC1` (stereo partly drawn) [Compound 41, N-(1R,4R)-4-(((3-Chloro-4-cyanophenyl)(methyl)amino)-cyclohexyl)-4-(4-(1-(2-(2,6-dioxopiperidin-3-yl)-1,3-dioxoisoindolin-5-yl)piperidin-4-yl)piperazin-1-yl)benzamide], the “reduction … (degradation kinetics)” value (AR protein [1]) is reported as “effectively reduce”, the “reduction of AR protein level in VCaP tumor tissue” value (AR protein [2]) is reported as “effective” and the “reduction … (degradation kinetics)” value (AR T878A mutant protein) is reported as “effectively reduce”.

For `N#Cc1ccc(O[C@H]2CC[C@H](NC(=O)c3ccc(NCCCCCNc4ccc5c(c4)C(=O)N(C4CCC(=O)NC4=O)C5=O)cc3)CC2)cc1Cl` (stereo partly drawn) [Compound 13, N-((1R,4R)-4-(3-Chloro-4-cyanophenoxy)cyclohexyl)-4-((5-((2-(2,6-dioxopiperidin-3-yl)-1,3-dioxoisoindolin-5-yl)amino)pentyl)-amino)benzamide], the “oral exposures in mice” value (Oral exposures in mice) was “very low”.

With `CN(c1ccc(C#N)c(Cl)c1)[C@H]1CC[C@H](NC(=O)c2ccc(N3CC(CN4CCN(c5ccc6c(c5)C(=O)N(C5CCC(=O)NC5=O)C6=O)CC4)C3)cc2)CC1` (stereo partly drawn) [Compound 44, N-(1R,4R)-4-(((3-Chloro-4-cyanophenyl)(methyl)amino)-cyclohexyl)-4-(3-((4-(2-(2,6-dioxopiperidin-3-yl)-1,3-dioxoisoindolin-5-yl)piperazin-1-yl)methyl)azetidin-1-yl)benzamide] the “reduction … (degradation kinetics)” value (AR protein [1]) was “effectively reduce” and the “reduction … (degradation kinetics)” value (AR T878A mutant protein) was “effectively reduce”.

For `N#Cc1ccc(O[C@@H]2CCCN(C(=O)c3ccc(N4CCC(N5CCN(c6ccc7c(c6)C(=O)N(C6CCC(=O)NC6=O)C7=O)CC5)CC4)cc3)CC2)cc1Cl` (stereo partly drawn) [Compound 33], the “effect in reducing AR protein (in words)” value (AR protein [1]; VCaP cell line) was “little or no effect”.

For `N#Cc1ccc(O[C@H]2CC[C@H](NC(=O)c3ccc(N4CCC(N5CCN(c6ccc7c(c6)C(=O)N(C6CCC(=O)NC6=O)C7=O)CC5)CC4)cc3)CC2)cc1Cl` (stereo partly drawn) [Compound 26, N-(1R,4R)-4-((3-Chloro-4-cyanophenoxy)cyclohexyl)-4-(4-(4-(2-(2,6-dioxopiperidin-3-yl)-1,3-dioxoisoindolin-5-yl)piperazin-1-yl)-piperidin-1-yl)benzamide], the “reduction … (degradation kinetics)” value (AR protein [1]) was “effectively reduce”, the clearance (Pharmacokinetics in mice; plasma) was 6.67 mL/min/kg and the “reduction … (degradation kinetics)” value (AR T878A mutant protein) was “effectively reduce”.

With `N#Cc1ccc(O[C@H]2CCC[C@H](NC(=O)c3ccc(N4CCC(N5CCN(c6ccc7c(c6)C(=O)N(C6CCC(=O)NC6=O)C7=O)CC5)CC4)cc3)CCC2)cc1Cl` (stereo partly drawn) [Compound 31, N-(1R,5R)-5-((3-Chloro-4-cyanophenoxy)cyclooctyl)-4-(4-(4-(2-(2,6-dioxopiperidin-3-yl)-1,3-dioxoisoindolin-5-yl)piperazin-1-yl)-piperidin-1-yl)benzamide] the “Dmax, AR degradation in VCaP cell line” value (AR protein [1]; VCaP cell line, 24 h treatment, Western blotting) was 54%.
